According to PubChem BioAssay (NCI):
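Interpolation was linear, between the two tested concentrations surrounding the appropriate level; five concentrations were tested over 48 hours in 96-well plates. GI50 is the concentration that inhibits growth by half. TGI denotes the concentration required for complete inhibition of growth.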

Tests used:
Assay in all cases: DTP human tumour cell line panel, 48 h
786-0 renal = test system: 786-0 renal
UACC-62 melanoma = test system: UACC-62 melanoma
NCI-H522 lung = test system: NCI-H522 lung
HCT-116 colon = test system: HCT-116 colon
RPMI-8226 leukemia = test system: RPMI-8226 leukemia
MDA-MB-231 breast = test system: MDA-MB-231 breast
ACHN renal = test system: ACHN renal
CCRF-CEM leukemia = test system: CCRF-CEM leukemia
K-562 leukemia = test system: K-562 leukemia
SK-MEL-28 melanoma = test system: SK-MEL-28 melanoma
MCF7 breast = test system: MCF7 breast
MOLT-4 leukemia = test system: MOLT-4 leukemia
M14 melanoma = test system: M14 melanoma
COLO 205 colon = test system: COLO 205 colon
OVCAR-5 ovarian = test system: OVCAR-5 ovarian
A549 NSCLC = test system: A549 NSCLC
RXF 393 renal = test system: RXF 393 renal
OVCAR-3 ovarian = test system: OVCAR-3 ovarian
NCI-H226 lung = test system: NCI-H226 lung
SF-268 CNS = test system: SF-268 CNS
OVCAR-4 ovarian = test system: OVCAR-4 ovarian
HCC-2998 colon = test system: HCC-2998 colon
HS 578T breast = test system: HS 578T breast
SK-MEL-2 melanoma = test system: SK-MEL-2 melanoma
TK-10 renal = test system: TK-10 renal
T-47D breast = test system: T-47D breast
SF-295 CNS = test system: SF-295 CNS
NCI/ADR-RES ovarian = test system: NCI/ADR-RES ovarian
NCI-H23 lung = test system: NCI-H23 lung
UACC-257 melanoma = test system: UACC-257 melanoma
CAKI-1 renal = test system: CAKI-1 renal
LOX IMVI melanoma = test system: LOX IMVI melanoma
A498 renal = test system: A498 renal
DU-145 prostate = test system: DU-145 prostate
MALME-3M melanoma = test system: MALME-3M melanoma
U251 CNS = test system: U251 CNS
SF-539 CNS = test system: SF-539 CNS
HOP-92 NSCLC = test system: HOP-92 NSCLC
HT29 colon = test system: HT29 colon
SNB-75 CNS = test system: SNB-75 CNS
SK-OV-3 ovarian = test system: SK-OV-3 ovarian
SW-620 colon = test system: SW-620 colon
SNB-19 CNS = test system: SNB-19 CNS
OVCAR-8 ovarian = test system: OVCAR-8 ovarian
MDA-MB-435 = test system: MDA-MB-435
SR leukemia = test system: SR leukemia
HCT-15 colon = test system: HCT-15 colon
PC-3 prostate = test system: PC-3 prostate
KM12 colon = test system: KM12 colon
HOP-62 NSCLC = test system: HOP-62 NSCLC
UO-31 renal = test system: UO-31 renal
BT-549 breast = test system: BT-549 breast
EKVX NSCLC = test system: EKVX NSCLC
NCI-H460 lung = test system: NCI-H460 lung
HL-60(TB) leukemia = test system: HL-60(TB) leukemia
SK-MEL-5 melanoma = test system: SK-MEL-5 melanoma
SN12C renal = test system: SN12C renal
IGROV1 ovarian = test system: IGROV1 ovarian

O=C(Nc1ccc(Oc2cccc(Cl)c2)c(Cl)c1)c1cnccn1
GI50 (786-0 renal): 2160 nM | TGI (786-0 renal): > 50000 nM | GI50 (UACC-62 melanoma): 345 nM | TGI (UACC-62 melanoma): > 50000 nM | GI50 (NCI-H522 lung): 296 nM | TGI (NCI-H522 lung): 2550 nM | GI50 (HCT-116 colon): 210 nM | TGI (HCT-116 colon): > 50000 nM | GI50 (RPMI-8226 leukemia): 323 nM | TGI (RPMI-8226 leukemia): > 50000 nM | GI50 (MDA-MB-231 breast): 452 nM | TGI (MDA-MB-231 breast): > 40000 nM | GI50 (ACHN renal): 3630 nM | TGI (ACHN renal): > 50000 nM | GI50 (CCRF-CEM leukemia): 367 nM | TGI (CCRF-CEM leukemia): > 50000 nM | GI50 (K-562 leukemia): 162 nM | TGI (K-562 leukemia): > 50000 nM | GI50 (SK-MEL-28 melanoma): 14100 nM | TGI (SK-MEL-28 melanoma): > 50000 nM | GI50 (MCF7 breast): 183 nM | TGI (MCF7 breast): > 50000 nM | GI50 (MOLT-4 leukemia): 371 nM | TGI (MOLT-4 leukemia): > 50000 nM | GI50 (M14 melanoma): 225 nM | TGI (M14 melanoma): > 50000 nM | GI50 (COLO 205 colon): 208 nM | TGI (COLO 205 colon): 16200 nM | GI50 (OVCAR-5 ovarian): 1600 nM | TGI (OVCAR-5 ovarian): > 50000 nM | GI50 (A549 NSCLC): 312 nM | TGI (A549 NSCLC): > 50000 nM | GI50 (RXF 393 renal): 831 nM | TGI (RXF 393 renal): 3470 nM | GI50 (OVCAR-3 ovarian): 198 nM | TGI (OVCAR-3 ovarian): 1160 nM | GI50 (NCI-H226 lung): 1730 nM | TGI (NCI-H226 lung): > 29800 nM | GI50 (SF-268 CNS): 1140 nM | TGI (SF-268 CNS): > 50000 nM | TGI (OVCAR-4 ovarian): > 50000 nM | GI50 (HCC-2998 colon): 5310 nM | TGI (HCC-2998 colon): > 36000 nM | GI50 (HS 578T breast): 214 nM | TGI (HS 578T breast): > 50000 nM | GI50 (SK-MEL-2 melanoma): 352 nM | TGI (SK-MEL-2 melanoma): > 50000 nM | GI50 (TK-10 renal): 3010 nM | TGI (TK-10 renal): > 50000 nM | GI50 (T-47D breast): 460 nM | TGI (T-47D breast): > 50000 nM | GI50 (SF-295 CNS): 480 nM | TGI (SF-295 CNS): > 25100 nM | GI50 (NCI/ADR-RES ovarian): 265 nM | TGI (NCI/ADR-RES ovarian): > 11800 nM | GI50 (NCI-H23 lung): 903 nM | TGI (NCI-H23 lung): > 50000 nM | GI50 (UACC-257 melanoma): > 20000 nM | TGI (UACC-257 melanoma): > 50000 nM | GI50 (CAKI-1 renal): 844 nM | TGI (CAKI-1 renal): > 50000 nM | GI50 (LOX IMVI melanoma): 275 nM | TGI (LOX IMVI melanoma): > 50000 nM | GI50 (A498 renal): 5850 nM | TGI (A498 renal): 28200 nM | GI50 (DU-145 prostate): 839 nM | TGI (DU-145 prostate): > 50000 nM | GI50 (MALME-3M melanoma): 1920 nM | TGI (MALME-3M melanoma): > 50000 nM | GI50 (U251 CNS): 245 nM | TGI (U251 CNS): > 22900 nM | GI50 (SF-539 CNS): 306 nM | TGI (SF-539 CNS): 1720 nM | GI50 (HOP-92 NSCLC): 673 nM | TGI (HOP-92 NSCLC): > 32800 nM | GI50 (HT29 colon): 168 nM | TGI (HT29 colon): > 20300 nM | GI50 (SNB-75 CNS): 258 nM | TGI (SNB-75 CNS): 2330 nM | GI50 (SK-OV-3 ovarian): 11500 nM | TGI (SK-OV-3 ovarian): > 50000 nM | GI50 (SW-620 colon): 216 nM | TGI (SW-620 colon): > 50000 nM | GI50 (SNB-19 CNS): 338 nM | TGI (SNB-19 CNS): > 50000 nM | GI50 (OVCAR-8 ovarian): 1410 nM | TGI (OVCAR-8 ovarian): > 50000 nM | GI50 (MDA-MB-435): 109 nM | TGI (MDA-MB-435): 290 nM | GI50 (SR leukemia): 145 nM | TGI (SR leukemia): > 50000 nM | GI50 (HCT-15 colon): 171 nM | TGI (HCT-15 colon): > 50000 nM | GI50 (PC-3 prostate): 1060 nM | TGI (PC-3 prostate): > 50000 nM | GI50 (KM12 colon): 180 nM | TGI (KM12 colon): > 50000 nM | GI50 (HOP-62 NSCLC): 368 nM | TGI (HOP-62 NSCLC): > 50000 nM | GI50 (UO-31 renal): 1910 nM | TGI (UO-31 renal): > 50000 nM | GI50 (BT-549 breast): 3310 nM | TGI (BT-549 breast): > 50000 nM | GI50 (EKVX NSCLC): 771 nM | TGI (EKVX NSCLC): > 50000 nM | GI50 (NCI-H460 lung): 245 nM | TGI (NCI-H460 lung): > 50000 nM | GI50 (HL-60(TB) leukemia): 556 nM | TGI (HL-60(TB) leukemia): 8950 nM | GI50 (SK-MEL-5 melanoma): 280 nM | TGI (SK-MEL-5 melanoma): > 50000 nM | GI50 (SN12C renal): 2560 nM | TGI (SN12C renal): > 50000 nM | GI50 (IGROV1 ovarian): 363 nM | TGI (IGROV1 ovarian): > 50000 nM
